Experiments:
[1] = Arterial blood pressure and dP/dt in conscious rats by telemetry; assay type: in vivo, Male, Harlan Sprague Dawley rats; details: single intraperitoneal (ip) injection (100 µl)
Excerpt: Insertion of Transducers: Male, Harlan Sprague Dawley rats were anesthetized with halothane and the abdominal aorta exposed after laparotomy. According to procedures detailed in the "Pressure Telemetry" manual from Data Sciences Inc., pressure transducer/transmitters were secured in place on the abdominal wall with the catheter tip in the abdominal aorta ~2mm above bifurcation. Following closure, the animals then recovered to allow at least 7 days of stable recordings. Baseline data were collected during the 7+ days after surgery.
The transmitted signals were recorded via telemetry and stored on a personal computer. Rate of pressure change, dP/dt, was calculated by software provided by Data Sciences.

[2] = Diuretic effects of GLP-1 or exendin in anesthetized rats (urine flow, sodium excretion, urinary potassium after intravenous bolus); assay type: in vivo, Male, Harlan Sprague Dawley rats
Procedure: Surgical preparation: The preparation used here was as described in Young et al., (Drug Dev Res. 37:231-248, 1996), but modified by the addition of unilateral ureteral cannulation. Anesthesia was induced with 5% halothane, maintained with 2% halothane during surgery and with 0.7 to 1% thereafter. Tracheotomy and cannulation of a femoral artery, saphenous vein and a single ureter were performed. […] The venous line was used for drug administration. Total saline infusion rate was kept at 4 mL/hr.
Observations are expressed as the percent of baseline, defined as the mean of measurements made in the 30 min prior to starting peptide or vehicle infusion. Data are expressed as mean±SEM. n=5-6.
Unilateral urine flow was measured by weighing the 15-minute output of the cannulated ureter. Total urine flow was estimated as twice this amount.
Treatments: To obtain dose-responses, peptides were dissolved in 0.15 M NaCl and administered as 0.1 ml bolus.

**Q.** With `CC[C@H](C)[C@H](NC(=O)[C@H](Cc1ccccc1)NC(=O)[C@H](CCC(=O)O)NC(=O)[C@H](CCCCN)NC(=O)[C@H](C)NC(=O)[C@H](C)NC(=O)[C@H](CCC(N)=O)NC(=O)CNC(=O)[C@H](CCC(=O)O)NC(=O)[C@H](CC(C)C)NC(=O)[C@H](Cc1ccc(O)cc1)NC(=O)[C@H](CO)NC(=O)[C@H](CO)NC(=O)[C@@H](NC(=O)[C@H](CC(=O)O)NC(=O)[C@H](CO)NC(=O)[C@@H](NC(=O)[C@H](Cc1ccccc1)NC(=O)[C@@H](NC(=O)CNC(=O)[C@H](CCC(=O)O)NC(=O)[C@H](C)NC(=O)[C@@H](N)Cc1c[nH]cn1)[C@@H](C)O)[C@@H](C)O)C(C)C)C(=O)N[C@@H](C)C(=O)N[C@@H](Cc1c[nH]c2ccccc12)C(=O)N[C@@H](CC(C)C)C(=O)N[C@H](C(=O)N[C@@H](CCCCN)C(=O)NCC(=O)N[C@@H](CCCNC(=N)N)C(N)=O)C(C)C` [GLP-1] as the molecule, how does the “cardiac contractility (dP/dt)” value [1] read?
**A.** increase

**Q.** And the mean arterial pressure [1]?
**A.** increase

**Q.** And the sodium excretion [2]?
**A.** increased
